Experimental data taken from US7910591B2, “Piperazine derivatives of alkyl oxindoles” (EGIS Gyogyszergyar NYRT., priority 2004, dated 2011).
Structures can show the parent of a compound that is named as a salt.

Experiments:
5-HT7 receptor = target: T1, 5-HT7 receptor (Homo sapiens, UniProt P34969); test: 5-HT7 receptor binding; settings: human cloned receptors; ligand 3H-lizergic acid diethylamide (LSD) 1.0 nM; non-specific binding clozapine 25 μM
T1 construct: expressed in transfected cells
Procedure: (§1) For the determination of 5-HT7 receptor affinity human cloned receptors were used. The α1 receptor affinities were determined from isolated frontal cortex preparation of male Wistar rats weighing 120-200 g. The protein contents of membrane preparations were determined by the method of Lowry (1951).
(§2) In the course of 5-HT7 and α1 receptor binding studies the ligands were ^3H-lizergic acid diethylamide (LSD) (1.0 nM) and ^3H-prazosine (0.3 nM). Clozapine (25 μM) and prazosine (1 μM) were used for the measurement of non-specific bindings. The α1 receptor binding studies were carried out according to the methods of Reader, and Greengrass (Reader, T. A., Briere, R., Grondin, L.: J. Neural Transm. 68, p. 79 (1987); Greengrass, P., Brenner, R.: Eur. J. Pharmacol. 55, p. 323 (1979)).
(§3) IC50 is the concentration where the difference between the whole binding and non-specific binding is 50%. The compounds with an IC50 value smaller than […] were considered effective in this test.

α1 receptor = α1 receptor binding; set-up: species or system rat; settings: isolated frontal cortex preparation of male Wistar rats; ligand 3H-prazosine 0.3 nM; non-specific binding prazosine 1 μM
Procedure: as §1, §2, §3

T1 sequence (P34969 whole entry): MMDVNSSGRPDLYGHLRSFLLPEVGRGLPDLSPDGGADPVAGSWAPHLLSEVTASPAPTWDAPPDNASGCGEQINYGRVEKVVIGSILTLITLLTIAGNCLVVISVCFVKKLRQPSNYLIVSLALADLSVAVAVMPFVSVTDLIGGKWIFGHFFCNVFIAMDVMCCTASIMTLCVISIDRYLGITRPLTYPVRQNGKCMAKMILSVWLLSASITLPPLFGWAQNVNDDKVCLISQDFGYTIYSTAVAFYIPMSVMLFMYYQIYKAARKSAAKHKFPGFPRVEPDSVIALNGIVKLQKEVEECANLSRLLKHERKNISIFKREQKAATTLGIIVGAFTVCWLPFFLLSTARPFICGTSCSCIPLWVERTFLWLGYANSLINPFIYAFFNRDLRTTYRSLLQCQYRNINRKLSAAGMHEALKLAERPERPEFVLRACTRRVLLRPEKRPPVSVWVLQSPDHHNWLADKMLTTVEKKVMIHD

| SMILES | melting point | IC50 (5-HT7 receptor) | IC50 (α1 receptor) |
| --- | --- | --- | --- |
| COc1ccc(Cl)cc1N1CCN(CCCCC2C(=O)Nc3ccccc32)CC1 (stereo not shown) (as salt: hydrochloride) [Example 11, 3-{4-[4-(5-Chloro-2-methoxyphenyl)-piperazine-1-yl]-butyl}-1,3-dihydro-2H-indol-2-one Monohydrochloride] | 91 to 94 °C | – | – |
| O=C1Nc2ccc(F)cc2C1CCCCN1CCN(c2ccccn2)CC1 (stereo not shown) [Example 7, 5-Fluoro-3-[4-(4-pyridin-2-yl-piperazine-1-yl)-butyl]-1,3-dihydro-2H-indol-2-one] | 132 to 134 °C | – | – |
| COc1cccc(N2CCN(CCCCC3C(=O)Nc4ccccc43)CC2)c1 (stereo not shown) [Example 9, 3-{4-[4-(3-Methoxyphenyl)-piperazine-1-yl]-butyl}-1,3-dihydro-2H-indol-2-one Monooxalate] | – | < 100 nM | – |
| COc1cccc(N2CCN(CCCCC3C(=O)Nc4ccccc43)CC2)c1 (stereo not shown) (as salt: oxalate) [Example 9, 3-{4-[4-(3-Methoxyphenyl)-piperazine-1-yl]-butyl}-1,3-dihydro-2H-indol-2-one Monooxalate] | 208 to 211 °C | – | – |
| COc1cccc(N2CCN(CCCCC3C(=O)Nc4ccc(F)cc43)CC2)c1 (stereo not shown) [Example 12, 5-Fluoro-3-{4-[4-3-methoxyphenyl)-piperazine-1-yl]-butyl}-1,3-dihydro-2H-indol-2-one Monooxalate] | – | < 100 nM | < 100 nM |
| COc1cccc(N2CCN(CCCCC3C(=O)Nc4ccc(F)cc43)CC2)c1 (stereo not shown) (as salt: oxalate) [Example 12, 5-Fluoro-3-{4-[4-3-methoxyphenyl)-piperazine-1-yl]-butyl}-1,3-dihydro-2H-indol-2-one Monooxalate] | 211 to 214 °C | – | – |
| O=C1Nc2ccccc2C1CCCCN1CCN(c2ccccn2)CC1 (stereo not shown) [Example 5, 3-[4-(4-Pyridin-2-yl-piperazine-1-yl)-butyl]-1,3-dihydro-2H-indol-2-one] | 131 to 132 °C | < 100 nM | < 100 nM |
| O=C1Nc2cc(F)ccc2C1CCCCN1CCN(c2ccccn2)CC1 (stereo not shown) [Example 8, 6-Fluoro-3-[4-(4-pyridin-2-yl-piperazine-1-yl)-butyl]-1,3-dihydro-2H-indol-2-one] | 136 to 137 °C | < 100 nM | < 100 nM |

More lines, now with the values ahead:

| melting point | IC50 (5-HT7 receptor) | IC50 (α1 receptor) | SMILES |
| --- | --- | --- | --- |
| – | < 100 nM | – | O=C1Nc2ccccc2C1CCCCN1CCN(c2cc(Cl)cc3c2OCCO3)CC1 (stereo not shown) [Example 6, 3-{4-[4-(7-Chloro-2,3-dihydrobenzo[1,4]dioxin-5-yl)-piperazine-1-yl]-butyl}-1,3-dihydro-2H-indol-2-one Monooxalate] |
| 146 to 148 °C | < 100 nM | < 50 nM | O=C1Nc2ccc(F)cc2C1CCCCN1CCN(c2cc(Cl)cc3c2OCCO3)CC1 (stereo not shown) [Example 10, 3-{4-[4(7-Chloro-2,3-dihydrobenzo[1,4]dioxin-5-yl)piperazine-1-yl]-butyl}-5-fluoro-1,3-dihydro-2H-indol-2-one] |
| 236 to 238 °C | – | – | O=C1Nc2ccccc2C1CCCCN1CCN(c2cc(Cl)cc3c2OCCO3)CC1 (stereo not shown) (as salt: oxalate) [Example 6, 3-{4-[4-(7-Chloro-2,3-dihydrobenzo[1,4]dioxin-5-yl)-piperazine-1-yl]-butyl}-1,3-dihydro-2H-indol-2-one Monooxalate] |
| – | < 100 nM | – | COc1ccc(Cl)cc1N1CCN(CCCCC2C(=O)Nc3ccccc32)CC1 (stereo not shown) [Example 11, 3-{4-[4-(5-Chloro-2-methoxyphenyl)-piperazine-1-yl]-butyl}-1,3-dihydro-2H-indol-2-one Monohydrochloride] |
